From article PMC6478789, “A chemical toolbox for the study of bromodomains and epigenetic signaling” (Nature Communications, 2019)
Where a chain is given by its changes, count along the chain named. Where two headings read alike, the source gives them in different places.

Experiments:
EP300 [1] = target: EP300 (Homo sapiens, UniProt Q09472); assay: Histone acetyltransferase (HAT) activity assay; type: biochemical; settings: read-out: HATs Activity (%);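 note: selectivity screen of bromodomain probe compounds against histone acetyltransferases, with enzyme activity given in percent for compounds tested at 1 and 10 µM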
HAT1 = target: T1, HAT1 (Homo sapiens, UniProt O14929); assay: Histone acetyltransferase (HAT) activity assay; type: biochemical; settings: read-out: HATs Activity (%);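 note: HAT selectivity screen of BRD probe compounds, enzyme activity in % measured with compound at 1 µM and 10 µM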
T1 sequence (O14929 1-419): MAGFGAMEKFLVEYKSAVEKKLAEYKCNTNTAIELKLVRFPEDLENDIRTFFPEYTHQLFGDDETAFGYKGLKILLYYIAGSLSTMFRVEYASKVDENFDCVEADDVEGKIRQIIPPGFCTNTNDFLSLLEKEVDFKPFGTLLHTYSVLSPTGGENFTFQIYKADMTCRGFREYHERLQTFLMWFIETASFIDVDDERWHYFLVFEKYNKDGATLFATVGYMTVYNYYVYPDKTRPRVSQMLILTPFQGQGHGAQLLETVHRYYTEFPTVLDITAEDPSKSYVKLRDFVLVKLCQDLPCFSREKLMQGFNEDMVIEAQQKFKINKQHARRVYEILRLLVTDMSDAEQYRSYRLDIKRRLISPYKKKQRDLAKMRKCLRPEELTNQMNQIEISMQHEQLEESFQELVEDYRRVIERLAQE

MYST1 = target: T2, MYST1 (Homo sapiens, UniProt Q9H7Z6); assay: Histone acetyltransferase (HAT) activity assay; type: biochemical; settings: read-out: HATs Activity (%);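 note: selectivity screen across a panel of histone acetyltransferases, with compounds tested at 1 and 10 µM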
T2 sequence (Q9H7Z6 1-458): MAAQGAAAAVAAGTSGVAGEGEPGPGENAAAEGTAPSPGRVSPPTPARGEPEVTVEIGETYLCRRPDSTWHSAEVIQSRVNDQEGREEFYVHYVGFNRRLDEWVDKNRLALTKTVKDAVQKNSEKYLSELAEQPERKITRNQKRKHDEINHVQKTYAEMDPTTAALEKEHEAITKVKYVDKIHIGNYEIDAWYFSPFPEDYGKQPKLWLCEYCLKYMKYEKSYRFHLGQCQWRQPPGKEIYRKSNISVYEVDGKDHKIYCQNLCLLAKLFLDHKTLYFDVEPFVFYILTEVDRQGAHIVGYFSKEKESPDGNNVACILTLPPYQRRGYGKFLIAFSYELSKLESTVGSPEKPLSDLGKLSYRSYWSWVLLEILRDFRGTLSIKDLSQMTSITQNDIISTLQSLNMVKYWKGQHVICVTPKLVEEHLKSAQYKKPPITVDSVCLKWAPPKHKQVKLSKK

MYST3 = MYST3 (Homo sapiens, UniProt Q92794); assay: Histone acetyltransferase (HAT) activity assay; type: biochemical; settings: read-out: HATs Activity (%);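 note: selectivity screen of bromodomain probe compounds across a panel of histone acetyltransferases, read out as enzyme activity in %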
Sequence of MYST3 (Q92794 whole entry, species assumed): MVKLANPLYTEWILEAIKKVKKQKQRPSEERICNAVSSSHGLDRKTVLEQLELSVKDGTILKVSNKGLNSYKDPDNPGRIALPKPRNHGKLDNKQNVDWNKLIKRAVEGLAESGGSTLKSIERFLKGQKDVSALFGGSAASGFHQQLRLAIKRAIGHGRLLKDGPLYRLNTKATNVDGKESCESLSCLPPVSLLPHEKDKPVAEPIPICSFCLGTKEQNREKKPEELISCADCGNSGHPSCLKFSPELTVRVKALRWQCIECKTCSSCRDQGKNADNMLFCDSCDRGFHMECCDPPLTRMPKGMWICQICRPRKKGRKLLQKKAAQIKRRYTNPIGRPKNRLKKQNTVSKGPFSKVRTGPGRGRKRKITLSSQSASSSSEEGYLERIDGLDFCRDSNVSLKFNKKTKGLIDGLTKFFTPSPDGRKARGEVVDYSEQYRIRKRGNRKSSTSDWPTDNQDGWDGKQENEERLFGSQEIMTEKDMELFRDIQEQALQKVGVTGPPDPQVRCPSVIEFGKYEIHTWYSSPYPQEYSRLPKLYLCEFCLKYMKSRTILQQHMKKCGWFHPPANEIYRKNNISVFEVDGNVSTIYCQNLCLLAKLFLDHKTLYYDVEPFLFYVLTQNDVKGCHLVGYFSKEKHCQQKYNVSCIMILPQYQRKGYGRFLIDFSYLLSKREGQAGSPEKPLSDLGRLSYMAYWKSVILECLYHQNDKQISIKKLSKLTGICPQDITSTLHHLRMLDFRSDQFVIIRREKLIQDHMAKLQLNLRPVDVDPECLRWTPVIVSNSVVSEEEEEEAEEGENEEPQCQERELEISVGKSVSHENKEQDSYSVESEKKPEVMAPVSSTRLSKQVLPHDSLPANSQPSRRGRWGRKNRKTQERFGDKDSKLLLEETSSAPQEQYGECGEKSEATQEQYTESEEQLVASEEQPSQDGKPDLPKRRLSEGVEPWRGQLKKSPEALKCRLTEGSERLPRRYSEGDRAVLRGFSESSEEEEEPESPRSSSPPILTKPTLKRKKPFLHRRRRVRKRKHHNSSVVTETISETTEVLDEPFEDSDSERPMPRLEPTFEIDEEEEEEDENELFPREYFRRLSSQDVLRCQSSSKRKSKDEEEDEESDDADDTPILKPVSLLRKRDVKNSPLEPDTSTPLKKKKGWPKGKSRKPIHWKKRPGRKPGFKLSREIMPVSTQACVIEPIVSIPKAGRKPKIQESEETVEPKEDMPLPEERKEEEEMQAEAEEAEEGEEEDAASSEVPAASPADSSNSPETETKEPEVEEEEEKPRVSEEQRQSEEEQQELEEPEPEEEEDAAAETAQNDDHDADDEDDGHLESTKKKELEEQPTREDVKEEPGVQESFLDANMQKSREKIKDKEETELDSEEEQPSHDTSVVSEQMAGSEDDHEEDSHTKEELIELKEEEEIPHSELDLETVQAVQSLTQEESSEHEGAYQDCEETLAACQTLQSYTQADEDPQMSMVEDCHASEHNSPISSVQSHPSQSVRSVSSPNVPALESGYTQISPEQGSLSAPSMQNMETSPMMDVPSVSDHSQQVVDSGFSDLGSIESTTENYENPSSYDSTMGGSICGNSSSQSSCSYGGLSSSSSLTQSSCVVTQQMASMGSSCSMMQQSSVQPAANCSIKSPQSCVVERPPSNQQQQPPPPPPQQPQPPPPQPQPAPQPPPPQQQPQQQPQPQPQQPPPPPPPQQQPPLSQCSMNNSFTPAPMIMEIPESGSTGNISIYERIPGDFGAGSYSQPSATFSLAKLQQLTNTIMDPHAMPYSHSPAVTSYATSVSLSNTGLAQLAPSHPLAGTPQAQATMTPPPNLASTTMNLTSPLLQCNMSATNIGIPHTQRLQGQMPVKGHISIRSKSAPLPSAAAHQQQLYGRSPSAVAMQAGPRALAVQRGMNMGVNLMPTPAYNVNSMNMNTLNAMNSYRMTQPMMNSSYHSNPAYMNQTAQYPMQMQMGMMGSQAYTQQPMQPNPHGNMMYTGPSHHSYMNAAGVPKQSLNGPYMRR

GCN5L2 = GCN5L2 (Homo sapiens, UniProt Q92830); assay: Histone acetyltransferase (HAT) activity assay; type: biochemical; settings: read-out: HATs Activity (%);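 note: selectivity screen of BRD probe compounds across a panel of histone acetyltransferases, HAT activity in % with compound at 1 or 10 µM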
Sequence of GCN5L2 (Q92830 whole entry, species assumed): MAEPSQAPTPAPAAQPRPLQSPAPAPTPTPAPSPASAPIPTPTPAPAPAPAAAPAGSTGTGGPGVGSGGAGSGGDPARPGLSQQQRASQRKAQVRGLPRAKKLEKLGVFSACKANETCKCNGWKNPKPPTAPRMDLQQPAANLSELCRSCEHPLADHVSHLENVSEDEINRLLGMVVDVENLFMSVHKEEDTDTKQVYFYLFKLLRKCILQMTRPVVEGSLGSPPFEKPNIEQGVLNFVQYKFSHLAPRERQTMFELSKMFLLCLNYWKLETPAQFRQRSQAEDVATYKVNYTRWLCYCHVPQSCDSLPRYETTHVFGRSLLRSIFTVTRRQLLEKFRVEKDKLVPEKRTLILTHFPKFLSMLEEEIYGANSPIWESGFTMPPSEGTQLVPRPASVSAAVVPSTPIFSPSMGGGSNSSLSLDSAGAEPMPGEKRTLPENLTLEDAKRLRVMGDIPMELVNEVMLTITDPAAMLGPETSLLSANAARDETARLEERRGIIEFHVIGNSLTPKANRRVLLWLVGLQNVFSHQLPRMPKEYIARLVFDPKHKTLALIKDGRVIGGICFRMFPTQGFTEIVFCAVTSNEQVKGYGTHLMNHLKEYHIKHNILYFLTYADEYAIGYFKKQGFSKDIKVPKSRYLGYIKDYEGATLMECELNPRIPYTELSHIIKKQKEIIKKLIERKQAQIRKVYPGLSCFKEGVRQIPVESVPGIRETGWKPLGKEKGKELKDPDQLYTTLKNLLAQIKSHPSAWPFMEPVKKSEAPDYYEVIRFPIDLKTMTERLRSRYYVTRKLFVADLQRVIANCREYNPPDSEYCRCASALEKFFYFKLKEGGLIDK

ATAD2A = target: T3, ATAD2A (Homo sapiens, UniProt Q6PL18); assay: BROMOscan ligand-binding assay
T3 sequence (Q6PL18 980-1092 limits assumed): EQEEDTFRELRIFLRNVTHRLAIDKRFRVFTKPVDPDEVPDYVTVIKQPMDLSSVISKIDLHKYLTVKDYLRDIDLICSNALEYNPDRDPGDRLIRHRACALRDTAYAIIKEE
Description: (§1) BROMOscan is a binding assay based on the well-known KINOMEscan technology. This assay measures the binding of a DNA-tagged bromodomain to an immobilized BRD ligand. If an inhibitor is present, it will compete with the bromodomain binding to the immobilized ligand, resulting in reduction of a quantitative PCR (qPCR) signal in a dose-dependent manner.

ATAD2B = target: T4, ATAD2B (Homo sapiens, UniProt Q9ULI0); assay: BROMOscan ligand-binding assay
T4 sequence (Q9ULI0 951-1066 limits assumed): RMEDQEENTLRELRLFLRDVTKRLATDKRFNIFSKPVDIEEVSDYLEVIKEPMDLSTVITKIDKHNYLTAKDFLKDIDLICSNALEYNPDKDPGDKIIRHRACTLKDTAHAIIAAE
Description: as §1

BAZ2A = target: T5, BAZ2A (Homo sapiens, UniProt Q9UIF9); assay: BROMOscan ligand-binding assay; settings: BROMOscan Gene Symbol BAZ2A
T5 sequence (Q9UIF9 1793-1897 limits assumed): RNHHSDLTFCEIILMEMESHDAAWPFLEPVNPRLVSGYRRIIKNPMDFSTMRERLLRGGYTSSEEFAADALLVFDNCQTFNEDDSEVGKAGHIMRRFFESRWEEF
Description: as §1

BAZ2B = target: T6, BAZ2B (Homo sapiens, UniProt Q9UIF8); assay: BROMOscan ligand-binding assay
T6 sequence (Q9UIF8 2060-2164 limits assumed): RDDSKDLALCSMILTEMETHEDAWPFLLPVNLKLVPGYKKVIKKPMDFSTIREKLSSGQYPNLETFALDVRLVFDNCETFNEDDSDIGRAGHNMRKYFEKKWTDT
Description: as §1

BRD1 = target: T7, BRD1 (Homo sapiens, UniProt O95696); assay: BROMOscan ligand-binding assay; settings: BROMOscan Gene Symbol BRD1
T7 sequence (O95696 562-666 limits assumed): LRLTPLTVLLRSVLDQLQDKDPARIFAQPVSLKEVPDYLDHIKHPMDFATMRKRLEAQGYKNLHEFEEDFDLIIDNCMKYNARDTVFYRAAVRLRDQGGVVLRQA
Description: as §1

BRD2(1) = BRD2(1) (Homo sapiens, UniProt P25440); assay: BROMOscan ligand-binding assay; settings: BROMOscan Gene Symbol BRD2(1)
Sequence of BRD2(1) (P25440 74-180 limits assumed): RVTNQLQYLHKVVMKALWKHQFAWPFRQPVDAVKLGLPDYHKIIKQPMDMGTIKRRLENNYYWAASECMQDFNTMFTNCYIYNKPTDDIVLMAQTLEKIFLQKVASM
Description: as §1

BRD2(2) = BRD2(2) (Homo sapiens, UniProt P25440); assay: BROMOscan ligand-binding assay; settings: BROMOscan Gene Symbol BRD2(2)
Sequence of BRD2(2) (P25440 344-453 limits assumed): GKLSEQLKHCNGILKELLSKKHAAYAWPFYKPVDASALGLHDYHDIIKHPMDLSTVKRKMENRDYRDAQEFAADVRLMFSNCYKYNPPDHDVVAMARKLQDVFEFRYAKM
Description: as §1

BRD3(1) = BRD3(1) (Homo sapiens, UniProt Q15059); assay: BROMOscan ligand-binding assay; settings: BROMOscan Gene Symbol BRD3(1)
Sequence of BRD3(1) (Q15059 34-140 limits assumed): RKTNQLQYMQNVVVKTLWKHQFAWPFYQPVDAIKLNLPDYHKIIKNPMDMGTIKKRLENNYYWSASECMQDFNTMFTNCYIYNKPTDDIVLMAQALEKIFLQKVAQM
Description: as §1

BRD3(2) = BRD3(2) (Homo sapiens, UniProt Q15059); assay: BROMOscan ligand-binding assay; settings: BROMOscan Gene Symbol BRD3(2)
Sequence of BRD3(2) (Q15059 306-415 limits assumed): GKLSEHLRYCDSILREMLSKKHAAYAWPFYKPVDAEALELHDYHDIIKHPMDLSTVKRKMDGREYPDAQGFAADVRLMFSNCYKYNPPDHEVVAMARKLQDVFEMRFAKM
Description: as §1

BRD9 = target: T8, BRD9 (Homo sapiens, UniProt Q9H8M2); assay: BROMOscan ligand-binding assay; settings: BROMOscan Gene Symbol BRD9
T8 sequence (Q9H8M2 136-240 limits assumed): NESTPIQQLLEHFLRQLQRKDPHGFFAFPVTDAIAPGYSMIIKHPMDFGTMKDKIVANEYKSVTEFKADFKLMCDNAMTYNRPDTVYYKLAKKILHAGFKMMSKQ
Description: as §1

BRDT(1) = BRDT(1) (Homo sapiens, UniProt Q58F21); assay: BROMOscan ligand-binding assay; settings: BROMOscan Gene Symbol BRDT(1)
Description: as §1

BRDT(2) = BRDT(2) (Homo sapiens, UniProt Q58F21); assay: BROMOscan ligand-binding assay; settings: BROMOscan Gene Symbol BRDT(2)
Description: as §1

BRPF1 = target: T9, BRPF1 (Homo sapiens, UniProt P55201); assay: BROMOscan ligand-binding assay; settings: BROMOscan Gene Symbol BRPF1
T9 sequence (P55201 628-732 limits assumed): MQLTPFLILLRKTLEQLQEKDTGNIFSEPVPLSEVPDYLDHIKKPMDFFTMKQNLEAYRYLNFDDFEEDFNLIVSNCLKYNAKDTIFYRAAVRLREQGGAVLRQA
Description: as §1

BRPF3 = target: T10, BRPF3 (Homo sapiens, UniProt Q9ULD4); assay: BROMOscan ligand-binding assay
T10 sequence (Q9ULD4 589-693 limits assumed): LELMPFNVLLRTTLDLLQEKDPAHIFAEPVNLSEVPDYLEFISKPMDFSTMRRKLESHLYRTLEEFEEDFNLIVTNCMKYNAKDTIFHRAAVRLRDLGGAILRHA
Description: as §1

EP300 [2] = target: T11, EP300 (Homo sapiens, UniProt Q09472); assay: BROMOscan ligand-binding assay; settings: BROMOscan Gene Symbol EP300
T11 sequence (Q09472 1049-1156 limits assumed): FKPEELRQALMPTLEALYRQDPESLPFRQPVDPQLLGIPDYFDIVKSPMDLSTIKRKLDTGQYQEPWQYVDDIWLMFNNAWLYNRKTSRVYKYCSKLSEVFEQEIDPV
Description: as §1

FALZ = FALZ (Homo sapiens, UniProt Q12830); assay: BROMOscan ligand-binding assay
Description: as §1

PBRM1(2) = PBRM1(2) (Homo sapiens, UniProt Q86U86); assay: BROMOscan ligand-binding assay; settings: BROMOscan Gene Symbol PBRM1(2)
Sequence of PBRM1(2) (Q86U86 177-287 limits assumed): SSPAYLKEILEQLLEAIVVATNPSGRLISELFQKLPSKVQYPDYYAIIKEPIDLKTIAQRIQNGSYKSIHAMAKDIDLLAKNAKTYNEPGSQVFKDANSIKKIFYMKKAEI
Description: as §1

TAF1(2) = target: T12, TAF1(2) (Homo sapiens, UniProt P21675); assay: BROMOscan ligand-binding assay; settings: BROMOscan Gene Symbol TAF1(2)
T12 sequence (P21675 1519-1628 limits assumed): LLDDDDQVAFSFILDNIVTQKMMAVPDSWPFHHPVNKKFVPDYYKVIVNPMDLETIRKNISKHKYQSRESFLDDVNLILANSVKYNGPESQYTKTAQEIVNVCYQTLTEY
Description: as §1

TAF1L(2) = target: T13, TAF1L(2) (Homo sapiens, UniProt Q8IZX4); assay: BROMOscan ligand-binding assay; settings: BROMOscan Gene Symbol TAF1L(2)
T13 sequence (Q8IZX4 1517-1626 limits assumed): T12 sequence (P21675 1519-1628 limits assumed) with V46M, M51V, V102I, L107I
Description: as §1

TRIM24(PHD,BRD) = target: T14, TRIM24(PHD,BRD) (Homo sapiens, UniProt O15164); assay: BROMOscan ligand-binding assay; settings: BROMOscan Gene Symbol TRIM24(PHD,Bromo.)
T14 sequence (O15164 824-1006 limits assumed): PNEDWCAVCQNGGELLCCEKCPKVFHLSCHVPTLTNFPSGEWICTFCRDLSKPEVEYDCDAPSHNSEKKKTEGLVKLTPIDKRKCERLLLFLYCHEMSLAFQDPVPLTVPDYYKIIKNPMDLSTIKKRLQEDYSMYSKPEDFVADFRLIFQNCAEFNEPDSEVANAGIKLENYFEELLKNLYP
Description: as §1

TRIM33(PHD,BRD) = target: T15, TRIM33(PHD,BRD) (Homo sapiens, UniProt Q9UPN9); assay: BROMOscan ligand-binding assay
T15 sequence (Q9UPN9 882-1087 limits assumed): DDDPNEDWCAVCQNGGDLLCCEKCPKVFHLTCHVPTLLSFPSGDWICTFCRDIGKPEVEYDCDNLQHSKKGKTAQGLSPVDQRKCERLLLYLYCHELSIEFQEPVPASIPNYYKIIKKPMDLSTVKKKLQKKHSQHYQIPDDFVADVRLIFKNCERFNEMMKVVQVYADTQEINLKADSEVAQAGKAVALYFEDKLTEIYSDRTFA
Description: as §1

WDR9(2) = WDR9(2) (Homo sapiens, UniProt Q9NSI6); assay: BROMOscan ligand-binding assay; settings: BROMOscan Gene Symbol WDR9(2)
Sequence of WDR9(2) (Q9NSI6 1313-1418 limits assumed): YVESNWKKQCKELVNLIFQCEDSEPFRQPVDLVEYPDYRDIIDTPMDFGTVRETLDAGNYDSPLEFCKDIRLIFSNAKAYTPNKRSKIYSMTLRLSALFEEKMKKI
Description: as §1

[3] = read-out: KD (BROMOscan), sheet prints no unit (nM)

Structure (SMILES): COc1cc(-c2cn(C)c(=O)c3cnccc23)c(OC)cc1CN(C)C [BI-9564]
- activity at 1 µM (EP300 [1]): 99%
- activity at 10 µM (EP300 [1]): 94%
- activity at 1 µM (HAT1): 99%
- activity at 10 µM (HAT1): 96%
- activity at 1 µM (MYST1): 106%
- activity at 10 µM (MYST1): 101%
- activity at 1 µM (MYST3): 99%
- activity at 10 µM (MYST3): 100%
- activity at 1 µM (GCN5L2): 102%
- activity at 10 µM (GCN5L2): 100%

Structure (SMILES): COc1ccc(CCc2nc3cc(-c4c(C)noc4C)ccc3n2CCN2CCOCC2)cc1 [CBP30-383]
- Kd (ATAD2A; BROMOscan Gene Symbol ATAD2A): > 150000 nM
- Kd (ATAD2A; [3]): > 30000 nM
- Kd (ATAD2B; BROMOscan Gene Symbol ATAD2B): > 50000 nM
- Kd (ATAD2B; [3]): > 30000 nM
- Kd (BAZ2A): 75 µM
- Kd (BAZ2B; BROMOscan Gene Symbol BAZ2B): > 50000 nM
- Kd (BAZ2B; [3]): > 30000 nM
- Kd (BRD1): 47 µM
- Kd (BRD2(1)): 1.5 µM
- Kd (BRD2(2)): 3.6 µM
- Kd (BRD3(1)): 1.4 µM
- Kd (BRD3(2)): 4.6 µM
- Kd (BRD9): 10 µM
- Kd (BRDT(1)): 3.6 µM
- Kd (BRDT(2)): 18 µM
- Kd (BRPF1): 11 µM
- Kd (BRPF3; BROMOscan Gene Symbol BRPF3): > 50000 nM
- Kd (BRPF3; [3]): > 30000 nM
- Kd (EP300 [2]): 0.044 µM
- Kd (FALZ; BROMOscan Gene Symbol FALZ): > 50000 nM
- Kd (FALZ; [3]): > 30000 nM
- Kd (PBRM1(2)): 44 µM
- Kd (TAF1(2)): 1.6 µM
- Kd (TAF1L(2)): 14 µM
- Kd (TRIM24(PHD,BRD)): 26 µM
- Kd (TRIM33(PHD,BRD); BROMOscan Gene Symbol TRIM33(PHD,Bromo.)): > 50000 nM
- Kd (TRIM33(PHD,BRD); [3]): > 30000 nM
- Kd (WDR9(2)): 41 µM

Structure (SMILES): CC(=O)c1cc(-c2cc(C(=O)NC3CC3)ccc2C)c2ncccn12 [TP-472]
- activity at 1 µM (EP300 [1]): 95%
- activity at 10 µM (EP300 [1]): 96%
- activity at 1 µM (HAT1): 98%
- activity at 10 µM (HAT1): 97%
- activity at 1 µM (MYST1): 100%
- activity at 10 µM (MYST1): 103%
- activity at 1 µM (MYST3): 99%
- activity at 10 µM (MYST3): 98%
- activity at 1 µM (GCN5L2): 94%
- activity at 10 µM (GCN5L2): 92%
